This assay deals with U87 cells. Briefly: miR-17 level under tunicamycin-induced ER stress. It is filed as cell-based. The conditions noted are these: data not shown. The procedure:
U87MG (ATCC) and U251MG (Sigma, St Louis, Mo., USA) cells were authenticated as recommended by AACR (http://aacrjournals.org/content/cell-line-authentication-information) and tested for the absence of mycoplasma using MycoAlert® (Lonza, Basel, Switzerland) or MycoFluor (Invitrogen, Carlsbad, Calif., USA). U87 cells (ATCC) were grown in DMEM glutamax (Invitrogen, Carlsbad, Calif., USA) supplemented with 10% FBS. U87 were stably transfected at MOI=0.3 with pCDH-CMV-MCS-EF1-Puro-copGFP (System biosciences) empty vector (EV), pCDH-CMV-MCS-EF1-Puro-copGFP containing IRE1alpha wild-type sequence (WT) or mutated sequence (P336L, A414T, S769F or Q780*). U87 cells were selected using 2 μg/mL puromycin and polyclonal populations were tested for GFP expression. Transfections of GBM primary cell lines with IRE1 WT and Q780* were performed using Lipofectamine LTX (ThermoFisher Scientific), according to the manufacturer's instructions. For microarray experiments, tunicamycin (purchased from Calbiochem (Merck KGaA, Darmstadt, Germany)) was used at […] for 16 hrs. Actinomycin D were purchased from Sigma-Aldrich (St Louis, Mo., USA) and used as indicated. […]
Total RNA was prepared using the Trizol reagent (Invitrogen, Carlsbad, Calif., USA). Semi-quantitative analyses were carried out as previously described. […]

Turning to tunicamycin, the miR-17 degradation entry is on record as “led to further miR-17 degradation”.

The values are drawn from patent US11525165B2, “Method of selection of an IRE1-inhibitor therapy for patient suffering from cancer” (INSERM (INSTITUT NATIONAL DE LA SANTÉ ET DE LA RECHERCHE …, priority 2017, dated 2022).
